Values after ≈ are worked out from the molar mass of the structure shown.
Columns and labels:
Rhizoctonia solani = assay: Antifungal activity against Rhizoctonia solani; format: functional, organism-based
Escherichia coli [1] = assay: Antibacterial activity against Escherichia coli E38 assessed as reduction in bacterial growth by measuring minimum bactericidal concentration incubated for 16 to 20 hrs by serial dilution method; format: functional; conditions: time 16-20 hrs
Escherichia coli [2] = assay: Antimicrobial activity against Escherichia coli NCIM 2065 assessed as zone of inhibition incubated for 24 hrs by agar diffusion method; format: functional
Escherichia coli [3] = assay: Antibacterial activity against Escherichia coli ATCC 25922 assessed as reduction in bacterial growth by broth microdilution method; format: functional
Bacillus pumilus = assay: Antimicrobial activity against Bacillus pumilus; format: functional
Candida albicans [4] = assay: Antifungal activity against Candida albicans assessed as reduction in microbial growth; format: functional
Fusarium oxysporum = assay: Antifungal activity against Fusarium oxysporum; format: functional
Staphylococcus aureus [5] = assay: Antibacterial activity against Staphylococcus aureus ATCC 25923 assessed as reduction in bacterial growth incubated for 24 hrs by serial dilution method; format: functional
MCF7 = assay: Anticancer activity against human MCF7 cells assessed as reduction in cell growth; format: functional, cell-based
Pseudomonas aeruginosa = assay: Antibacterial activity against Pseudomonas aeruginosa ATCC 27853 assessed as inhibition of bacterial growth; format: functional
Micrococcus luteus = assay: Antibacterial activity against Micrococcus luteus assessed as reduction in microbial growth; format: functional
Xanthomonas axonopodis = assay: Antimicrobial activity against Xanthomonas axonopodis; format: functional, organism-based
Staphylococcus aureus [6] = assay: Antibacterial activity against Staphylococcus aureus; format: functional
Nakaseomyces glabratus = assay: Antifungal activity against Candida glabrata; format: functional
Candida tropicalis = assay: Antifungal activity against Candida tropicalis; format: functional
Candida albicans [7] = assay: Antifungal activity against Candida albicans; format: functional
Pichia kudriavzevii = assay: Antifungal activity against Candida krusei; format: functional

S=c1[nH]nc(NCNc2n[nH]c(=S)s2)s1
EC50 (Rhizoctonia solani): 295 µg/mL (≈ 1060 µM)

Nc1ccc(Sc2nc3ccccc3nc2Cl)cc1
MBC (Escherichia coli [1]): 2.5 µg/mL (≈ 8.69 µM)
inhibition zone (IZ) (Escherichia coli [2]): 15 mm

Nc1ccc(Sc2nc3ccccc3nc2Sc2ccc(N)cc2)cc1
MIC (Escherichia coli [3]): 2.5 µg/mL (≈ 6.64 µM)
MIC (Bacillus pumilus): 2.5 µg/mL (≈ 6.64 µM)

N#Cc1ccc(COC(=O)c2ccc(Oc3cnc4cc(Cl)ccc4n3)cc2)cc1
EC50 (Rhizoctonia solani): 12 µg/mL (≈ 28.9 µM)

O=C(O)c1cccc(Sc2nc3ccccc3nc2Sc2cccc(C(=O)O)c2)c1
MIC (Escherichia coli [3]): 2.5 µg/mL (≈ 5.75 µM)

NNC1=NNc2nc3ccc(S(=O)(=O)N4CCOCC4)cc3nc2S1
MIC (Candida albicans [4]): 3.9 µg/mL
MIC (Fusarium oxysporum): 15.6 µg/mL (≈ 40.9 µM)
MIC (Staphylococcus aureus [5]): 1.92 µg/mL (≈ 5.03 µM)

COc1ccc(OC)c(/C=C/c2nc3ccccc3nc2Nc2ccc(C(=O)O)cc2)c1
IC50 (MCF7): 10 µM

CCNc1nc2ccccc2nc1C(=O)c1cnc(-c2ccccc2)o1
MIC (Pseudomonas aeruginosa): 31.2 µg/mL (≈ 90.7 µM)
MIC (Micrococcus luteus): 62.5 µg/mL

COc1ccc(Sc2nc3ccccc3nc2Sc2ccc(OC)cc2)cc1
MIC (Escherichia coli [3]): 2.5 µg/mL (≈ 6.15 µM)
MIC (Bacillus pumilus): 5 µg/mL (≈ 12.3 µM)

O=S(=O)(c1ccc2nc(Cl)c(Cl)nc2c1)N1CCOCC1
MIC (Staphylococcus aureus [5]): 1.92 µg/mL (≈ 5.51 µM)

O=C(/C=C/c1ccccn1)c1ccc(Oc2cnc3ccccc3n2)cc1
EC50 (Xanthomonas axonopodis): 62.3 µM

O=[N+]([O-])c1ccc(Sc2nc3ccccc3nc2Sc2ccc([N+](=O)[O-])cc2)cc1
MIC (Escherichia coli [3]): 2.5 µg/mL (≈ 5.73 µM)

O=C(c1cnc(-c2ccc(Cl)cc2)o1)c1nc2ccccc2nc1N1CCOCC1
EC50 (Xanthomonas axonopodis): 44.3 µM
MIC (Pseudomonas aeruginosa): 31.2 µg/mL (≈ 74.3 µM)
MIC (Micrococcus luteus): 62.5 µg/mL

C/C(=N/Nc1nc2nc3cc(S(=O)(=O)N4CCOCC4)ccc3nc2s1)c1ccc(Br)cc1
MIC (Staphylococcus aureus [5]): 1.92 µg/mL (≈ 3.51 µM)

N#Cc1ccc(/C=C/c2nc3ccccc3nc2Nc2ccc(C(=O)O)cc2)cc1
MIC (Staphylococcus aureus [6]): 13.3 µM (≈ 5.22 µg/mL)

CCc1nc2ccc(-c3nnc(SCC(=O)c4ccc([N+](=O)[O-])cc4)n3CC)cc2nc1CC
MIC90 (Nakaseomyces glabratus): 2 µg/mL (≈ 4.2 µM)
MIC90 (Candida tropicalis): 4 µg/mL (≈ 8.39 µM)
MIC90 (Candida albicans [7]): 4 µg/mL (≈ 8.39 µM)
MIC90 (Pichia kudriavzevii): 2 µg/mL (≈ 4.2 µM)

O=C(O)c1ccc(Nc2nc3ccccc3nc2/C=C/c2ccc(O)cc2)cc1
IC50 (MCF7): 7 µM

COc1ccc(Sc2nc3ccccc3nc2Cl)cc1
MBC (Escherichia coli [1]): 2.5 µg/mL (≈ 8.26 µM)
inhibition zone (IZ) (Escherichia coli [2]): 13 mm

Cc1cc(O)n(C2=NNc3nc4ccc(S(=O)(=O)N5CCOCC5)cc4nc3S2)n1
MIC (Candida albicans [4]): 3.9 µg/mL
MIC (Fusarium oxysporum): 15.6 µg/mL (≈ 34.9 µM)
MIC (Staphylococcus aureus [5]): 1.92 µg/mL (≈ 4.29 µM)

CCCNc1nc2ccccc2nc1C(=O)c1cnc(-c2ccc(Cl)cc2)o1
EC50 (Xanthomonas axonopodis): 42.4 µM
MIC (Pseudomonas aeruginosa): 31.2 µg/mL (≈ 79.5 µM)
MIC (Micrococcus luteus): 62.5 µg/mL

Cc1cc(C)cc(Sc2nc3ccccc3nc2Cl)c1
MBC (Escherichia coli [1]): 2.5 µg/mL (≈ 8.31 µM)
inhibition zone (IZ) (Escherichia coli [2]): 11 mm

CNc1nc2ccccc2nc1C(=O)c1cnc(-c2ccccc2)o1
MIC (Pseudomonas aeruginosa): 31.2 µg/mL (≈ 94.6 µM)
MIC (Micrococcus luteus): 62.5 µg/mL

O=C(c1cnc(-c2ccc(Cl)cc2)o1)c1nc2ccccc2nc1NCc1ccccc1
EC50 (Xanthomonas axonopodis): 6.72 µM
MIC (Pseudomonas aeruginosa): 31.2 µg/mL (≈ 70.9 µM)
MIC (Micrococcus luteus): 62.5 µg/mL

CCCNc1nc2ccccc2nc1C(=O)c1cnc(-c2ccccc2)o1
MIC (Pseudomonas aeruginosa): 31.2 µg/mL (≈ 87.2 µM)
MIC (Micrococcus luteus): 62.5 µg/mL

Cc1nnc2n1Nc1nc3ccc(S(=O)(=O)N4CCOCC4)cc3nc1S2
MIC (Staphylococcus aureus [5]): 1.92 µg/mL (≈ 4.74 µM)

N#Cc1ccc(COC(=O)c2ccc(Oc3cnc4ccccc4n3)cc2)cc1
EC50 (Rhizoctonia solani): 8.54 µg/mL (≈ 22.4 µM)

O=C(OCc1ccc(Cl)cc1Cl)c1ccc(Oc2cnc3cc(Cl)ccc3n2)cc1
EC50 (Rhizoctonia solani): 35.2 µg/mL (≈ 76.5 µM)

CO/C=C(/C(=O)OC)c1ccccc1Oc1cc(Oc2ccccc2C#N)ncn1 [AZOXYSTROBIN]
EC50 (Rhizoctonia solani): 26.2 µg/mL (≈ 64.9 µM)

OC(Cn1cncn1)(Cn1cncn1)c1ccc(F)cc1F [FLUCONAZOLE]
MIC90 (Nakaseomyces glabratus): 2 µg/mL (≈ 6.53 µM)
MIC90 (Candida tropicalis): 4 µg/mL (≈ 13.1 µM)
MIC90 (Candida albicans [7]): 0.5 µg/mL (≈ 1.63 µM)
MIC90 (Pichia kudriavzevii): 16 µg/mL (≈ 52.2 µM)

Reference: ChEMBL document CHEMBL6078618, “Exploring quinoxaline derivatives: An overview of a new approach to combat antimicrobial resistance” (Eur J Med Chem, 2024)
